# Test results: US12686846B2, “Plant sweet and yeast MSF transporter capable of transporting different sugars simultaneously” (THE BOARD OF TRUSTEES OF THE UNIVERSITY OF ILLINOIS, priority 2020, dated 2026)
# “Also recorded” adds a separate entry of the source.
# Legend:
# Type in all cases: cell-based
# [1] = molecular target: T1, Arabidopsis thaliana AtSWEET7 transporter, wild type (Table 2: SEQ ID NO: 3; FIG. 12: SEQ ID NO:2) (Arabidopsis thaliana, UniProt Q8LBF7); assay: C14 labeled sugar uptake assay (zero-trans influx), SR8D8 expressing AtSWEET7; conditions: initial glucose uptake (5 s), 30° C., pH 6.5; cell wet weight; ± SEM
# T1 construct: expressed in transfected cells; host or cells: S. cerevisiae SR8D8 (SR8 with HXT1-7 and GAL2 deleted), plasmid p42K-GPD1p-CYC1t
# T1 sequence (Q8LBF7 1-258): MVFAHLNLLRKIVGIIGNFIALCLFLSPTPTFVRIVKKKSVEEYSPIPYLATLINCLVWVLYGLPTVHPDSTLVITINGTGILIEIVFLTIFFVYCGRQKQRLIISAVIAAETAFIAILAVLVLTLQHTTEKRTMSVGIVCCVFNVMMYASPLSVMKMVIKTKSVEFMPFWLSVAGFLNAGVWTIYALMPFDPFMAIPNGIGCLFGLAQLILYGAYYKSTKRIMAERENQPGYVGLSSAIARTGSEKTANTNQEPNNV
# Procedure: (§1) FIG. 7A illustrates sugar uptake kinetics by SR8D8. FIG. 7B illustrates sugar uptake kinetics by SR8D8 expressing AtSWEET1. FIG. 7C illustrates sugar uptake kinetics by SR8D8 expressing ScGal2. FIG. 7D illustrates sugar uptake kinetics by SR8D8 expressing AtSWEET7. FIG. 7E illustrates sugar uptake kinetics by SR8D8 expressing LST1_205437. Initial xylose uptake (20 s) was measured at 30° C. over a concentration range of 1 to 500 mM xylose. FIG. 7F illustrates sugar uptake kinetics by SR8D8. FIG. 7G illustrates sugar uptake kinetics by SR8D8 expressing AtSWEET1. FIG. 7H illustrates sugar uptake kinetics by SR8D8 expressing ScGal2. FIG. 7I illustrates sugar uptake kinetics by SR8D8 expressing AtSWEET7. FIG. 7J illustrates sugar uptake kinetics by SR8D8 expressing LST1_205437. Initial glucose uptake (5 s) was measured at 30° C. over a concentration range of 0.2 to 100 mM glucose. […]
# (§2) A xylose fermenting S. cerevisiae yeast (SR8) with HXT1-7Δ, GAL2Δ deletions was used for transporter screening and characterization (SR8D8). […] Biomass was calculated from the OD600 measured using a Biomate 5 UV-visible spectrophotometer (Fisher, NY, USA). All growth rates were measured using a Bioscreen C plate reader system (Growth Curves USA, Piscataway, NJ, USA). […]
# (§3) Uptake was measured at sugar concentrations 0.2, 1, 5, 25, and 100 mM for glucose and 1, 5, 25, 66, 100, 200, and 500 mM for xylose. […]
# [2] = molecular target: T2, Arabidopsis thaliana AtSWEET1 transporter, wild type, SEQ ID NO: 1 (Arabidopsis thaliana, UniProt Q8L9J7); assay: C14 labeled sugar uptake assay, SR8D8 expressing AtSWEET1; conditions: in words; FIGS. 7B and 7D legend: FIG. 7G
# T2 construct: whole-cell 14C sugar uptake
# T2 sequence (Q8L9J7 1-247): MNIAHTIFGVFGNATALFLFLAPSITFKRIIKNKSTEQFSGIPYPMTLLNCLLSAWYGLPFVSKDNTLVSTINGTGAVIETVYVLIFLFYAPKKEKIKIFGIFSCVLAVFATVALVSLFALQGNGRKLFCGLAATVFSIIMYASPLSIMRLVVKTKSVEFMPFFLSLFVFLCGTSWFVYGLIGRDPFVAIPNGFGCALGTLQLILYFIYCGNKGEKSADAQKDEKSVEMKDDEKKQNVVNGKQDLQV
# Procedure: as §1, §2, §3
# [3] = molecular target: T1, Arabidopsis thaliana AtSWEET7 transporter, wild type (Table 2: SEQ ID NO: 3; FIG. 12: SEQ ID NO:2); assay: Inhibition of xylose uptake by glucose, SR8D8 expressing AtSWEET7; conditions: 25 mM and 100 mM glucose; in words
# Procedure: Symbols: glucose (square), xylose (triangle up), DCW (circle), ethanol (triangle down), glycerol (diamond). […] Global curve fitting for Michaelis-Menten kinetics with competitive inhibition was applied to data of three independent measurements at each concentration.
# SR8D8 containing the respective plasmid was grown on selective YPE medium to an OD600 of 1-1.5, harvested by centrifugation, and washed twice in ice-cold uptake buffer (100 mM potassium phosphate, pH 6.5). C14 labeled sugar uptake assay was done according to Boles and Oreb. Radioactivity was analyzed in a Beckman-Coulter LS6500 multi-purpose liquid scintillation counter (Beckman-Coulter, CA, USA).
# Sugar solutions contained 0.135-0.608 μCi of D-[U-^14C]-glucose (290-300 mCi/mmol) or D-[1-^14C]-xylose (55 mCi/mmol) (PerkinElmer, MA, USA). Calculation of Km (Michaelis constant), Vmax (maximal initial uptake velocity), and K (inhibitor constant for competitive inhibition) was done by nonlinear regression analysis and global curve fitting in Prism 7 (GraphPad Software) with values of three independent measurements.
compound,measurement,setting,value
OC[C@H]1OC(O)[C@H](O)[C@@H](O)[C@@H]1O (stereo partly drawn) [Glucose],Vmax (glucose),[1],110.3 ± 7.2 nmol/min/mg
same,glucose transport kinetics,[2],transports glucose more efficiently as compared to AtSWEET7
same,inhibition of xylose transport by glucose,[3],no inhibition of xylose transport by glucose; also recorded: do not have any xylose transport inhibition
